From US4985440A, “Hypolipidaemic imidazol-2-yl-derivatives of bicyclic compounds” (priority 1988, dated 1991)

Key:
[1] = Serum lipid lowering in male rats on standard diet (Table 1, activity as % variation vs. controls); type: in vivo, Iva:SDIV (SPF) male rats; details: rat, 50 mg/kg/os, 4 days by stomach tube, * p ≤ 0.05, ** p ≤ 0.01; for Triglycerides, activity as % variation vs. controls: serum triglycerides; for Tot. Chol., activity as % variation vs. controls: total serum cholesterol
Procedure: The activity of compounds of this invention was evaluated on Groups of Iva:SDIV (SPF) male rats fed standard diet (Altromin^R).
The compounds were suspended in "Methocel" (methyl cellulose, a 0.5% pseudosolution in water) and administered by stomach tube for 4 days.
Groups of animals were treated with the suspending agent only (control groups).
The total serum cholesterol was determined with the method of Allain C. C. (Clin. Chem. 20, 470, 1974).
The serum triglycerides were determined with the method of Spayd R. N. (Clin. Chem. 24, 1343, 1978).
The total serum HDL cholesterol was determined according to Demacker P. N. M. [Clin. Chem., 23, 1238 (1977)].
W. - J. Amer. Stat. Ass., 50, 1096 (1955)].

ACAT = details: rabbit arterial microsomes; Hudson H., Day A., Atherosclerosis (1982) 45, 109; cited from earlier work
[2] = target: T1, acyl CoA: cholesterol acyltransferase (ACAT-EC 2.3.1.26) (Oryctolagus cuniculus, UniProt A0A5F9CPP4); assay: ACAT inhibition in microsomes from atherosclerotic rabbit thoracic aortas (Table 2); type: biochemical
T1 construct: microsomal preparations from atherosclerotic rabbit thoracic aorta (intimamedia); from tissue; host or cells: microsomes of atherosclerotic rabbit thoracic aorta (intima-media)
T1 sequence (A0A5F9CPP4 1-555): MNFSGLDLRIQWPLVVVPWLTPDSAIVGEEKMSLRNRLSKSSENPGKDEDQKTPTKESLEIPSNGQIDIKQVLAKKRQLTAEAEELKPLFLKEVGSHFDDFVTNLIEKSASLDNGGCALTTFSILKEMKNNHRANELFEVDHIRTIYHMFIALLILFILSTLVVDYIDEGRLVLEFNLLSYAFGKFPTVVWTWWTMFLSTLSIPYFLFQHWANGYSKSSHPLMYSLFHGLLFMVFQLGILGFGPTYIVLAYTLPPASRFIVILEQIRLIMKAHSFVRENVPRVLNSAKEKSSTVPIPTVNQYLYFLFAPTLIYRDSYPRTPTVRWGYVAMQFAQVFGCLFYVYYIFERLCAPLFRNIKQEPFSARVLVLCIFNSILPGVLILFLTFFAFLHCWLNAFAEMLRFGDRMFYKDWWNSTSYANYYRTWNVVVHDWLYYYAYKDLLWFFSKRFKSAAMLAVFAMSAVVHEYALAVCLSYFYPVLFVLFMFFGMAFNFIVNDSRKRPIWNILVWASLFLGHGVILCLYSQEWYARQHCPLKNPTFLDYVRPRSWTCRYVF

CCOC(=O)C(C)(C)CCCOc1ccc2c(c1)C=C(c1nccn1C)C(C)O2 (stereo not drawn) [FCE 25086, ethyl 5-[2-methyl-3-(1-methyl-1H-imidazol-2-yl)-2H-1-benzopyran-6yl]oxy-2,2-dimethylpentanoate]
HDL/LDL + VLDL Chol. ratio, activity as % variation vs. controls [1]: +135% | LDL + VLDL Chol., activity as % variation vs. controls [1]: -55% | Triglycerides, activity as % variation vs. controls [1]: -53% | Tot. Chol., activity as % variation vs. controls [1]: -14%

CCOC(=O)C(C)(C)CCCOc1ccc2c(c1)C=C(c1nccn1C)CC2 [FCE 25390, ethyl 5-[5,6-dihydro-7-(1-methyl-1H-imidazol-2-yl)naphthalen-2yl]oxy-2,2-dimethylpentanoate]
HDL/LDL + VLDL Chol. ratio, activity as % variation vs. controls [1]: +96% | LDL + VLDL Chol., activity as % variation vs. controls [1]: -59% | Triglycerides, activity as % variation vs. controls [1]: -58% | Tot. Chol., activity as % variation vs. controls [1]: -36%

CC(C)(Oc1ccc(CCNC(=O)c2ccc(Cl)cc2)cc1)C(=O)O [Bezafibrate]
inhibitory activity in vitro (in words) (ACAT): inhibitory activity in vitro (rabbit arterial microsomes) has been already demonstrated

CCCC1Oc2ccc(OCCCC(C)(C)C(=O)OCC)cc2C=C1c1nccn1C (stereo not drawn) [FCE 25184, ethyl 5-[3-(1-methyl-1H-imidazol-2-yl)-2-n-propyl-2H-1-benzopyran-6-yl]oxy-2,2-dimethylpentanoate]
IC50 ([2]; microsomes from atherosclerotic rabbit thoracic aortas (intimamedia), limits p = 0.95): 1060 nM | potency in ACAT inhibition relative to Bezafibrate (times more potent) ([2]; ratio of IC50 values, vs. Bezafibrate): about 500 times

CCOC(=O)C(C)(C)Oc1ccc(Cl)cc1 [Clofibrate, reference compound]
HDL/LDL + VLDL Chol. ratio, activity as % variation vs. controls [1]: +18% | LDL + VLDL Chol., activity as % variation vs. controls [1]: -19% | Triglycerides, activity as % variation vs. controls [1]: -22% | Tot. Chol., activity as % variation vs. controls [1]: -11%
